In patent US20250340457A1, “SYSTEMS AND METHODS FOR EXTRACTION OF FLUORINATED HYDROCARBONS” (Khalifa University of Science and Technology, priority 2024, published 2025):
Converted amounts (≈) assume the structure as drawn. Like-named read-outs stand apart in the source and are kept apart here.

What was measured:
[1] = cited from earlier work
[2] = Thermogravimetric analysis (onset decomposition temperature); assay type: physicochemical
Description: FIG. 6B illustrates thermogravimetric profiles of TOPO, LauA, and TOPO: LauA (1:1), according to some embodiments. Thermogravimetric analysis is another essential solvent characterization method and is vital for identifying the maximum operational temperature range of a solvent. The onset decomposition temperature (Tonset) marks the start of a noticeable weight loss, indicating initial thermal degradation. Table 3 lists the onset temperatures for TOPO: LauA (1:1), and its thermogravimetric profile is shown in FIG. 6B along with the profiles of pure TOPO and lauric acid for comparison. Hydrogen bonding plays an important role in DES stability by reducing molecular volatility and increasing the energy needed for decomposition. […] This intermediate Tonset reflects the delicate balance of H-bonding strength in the DES that is affected from both the stability of the individual components and the new interactions they form when combined.

rat = settings: cited from earlier work
[3] = cited from earlier work; remark: listed apart in the source
[4] = 25° C.; cited from earlier work

Onset decomposition temperature (Tonset) [2]	SMILES	water solubility [1]	serum elimination half-lives [3]	also measured
207 °C	CCCCCCCCCCCC(=O)O [Lauric acid, lauric acid]	0.4 µg/mL (≈ 2 µM)	–	–
–	C[N+](C)(C)CCO.[Cl-] [choline chloride, reference compound]	–	–	LD50 (oral, rat) (rat; oral): 3,900 mg/kg
–	O=C(O)C(F)(F)C(F)(F)C(F)(F)C(F)(F)C(F)(F)C(F)(F)C(F)(F)F [PFOA, perfluorooctanoic acid]	–	5.4 years	–
281 °C	CCCCCCCCP(=O)(CCCCCCCC)CCCCCCCC [TOPO, trioctylphosphine oxide]	0.15 µg/mL (≈ 0.388 µM)	–	LD50 (oral, rat) (rat; in vivo, po): 2,000 mg/kg
–	O=S(=O)(O)C(F)(F)C(F)(F)C(F)(F)C(F)(F)C(F)(F)C(F)(F)C(F)(F)C(F)(F)F [PFOS, perfluorooctane sulfonic acid]	–	3.8 years	–
–	Cc1ccc(C(C)C)c(O)c1 [thymol]	–	–	inherent density [4]: 0.967 g/mL
